Experimental findings from ChEMBL document CHEMBL1150946, “Antipruritic dinaphthofuran-7,12-dione derivatives from the pericarp of Impatiens balsamina” (J Nat Prod, 1998) are described below.

Molecules are shown by their SMILES. Active and inactive are the calls of the source. The calls are words filed in the database; no cut-off is given here.

This assay has as its system Mus musculus. The experiment in a line: Antipruritic activity in ddY mouse assessed as inhibition of compound 48/80-induced nose scratching behavior at 10 mg/kg, po for 20 mins preincubated 24 hrs before compound 48/80 challenge. Also on record: dose 10 mg/kg. Type of assay: functional, organism-based.

Take `COc1c(O[C@@H]2O[C@H](CO)[C@@H](O)[C@H](O)[C@H]2O)c2ccccc2c2oc3c(c12)C(=O)c1ccccc1C3=O`: the result was Active.

On to `COC1=CC(=O)c2ccccc2C1=O`, for which the outcome was Active.
